US20140194392A1 (priority 2013, published 2014)

Experiments:
[1] = tested on: Influenza A/TW/70058/09 (H1N1); test: microbe, parasite or virus in culture; format: cell-based; conditions: H1N1, read-out: EC50 on the inhibition of replication (viral plaque reduction assay)
[2] = tested on: Influenza A/TW/70066/09 (H1N1); test: microbe, parasite or virus in culture; format: cell-based; conditions: H1N1, read-out: EC50 on the inhibition of replication (viral plaque reduction assay)

Question: Which EC50 [1] does the source give for `Nc1c(S(=O)(=O)O)cc(Nc2cccc(S(=O)(=O)CCOS(=O)(=O)O)c2)c2c1C(=O)c1ccccc1C2=O` [RB19, remazol brilliant blue R] here?
Answer: 9.8 µM

Question: What about the EC50 [2] of the same compound?
Answer: 11.9 µM
